In US20220402916A1, “SMALL MOLECULE INHIBITORS OF KRAS G12C MUTANT” (Merck Sharp & Dohme Corp., priority 2019, published 2022):
Where two headings read alike, the source gives them in different places.

Key:
[1] = biological target: T1, Biotinylated KRAS G12C protein (Homo sapiens, UniProt P01116, C118S/C51S/C80L/G12C); assay: SOS-catalyzed nucleotide exchange assay; format: biochemical; conditions: apparent potency; preincubation time of 60 minutes prior to addition of SOS
T1 construct: 183 amino acids; biotin on K10

[2] = test system: NCI-H358 cells; assay: Cellular phospho-ERK assay; format: cell-based
Method: NCI-H358 cells (ATCC® CRL-5807™) were cultured in T150 flask in growth medium (RPMI medium 1640-GlutaMAX™-1 (ThermoFisher Scientific 61870) containing 10% fetal bovine serum (ThermoFisher Scientific 10091148)). The cells were harvested in growth medium after TrypLE (ThermoFisher scientific 12604021) digestion and were seeded in 384-well collagen coated cell culture plate (Corning 356702) at a density of 15,000 cells/well, and incubated at 37° C., 5% CO2 overnight. The compound dose-response titrations were prepared and appropriate amounts of compounds were dispensed in 384-well intermediate plate using Echo 550 liquid handler. RPMI medium 1640-GlutaMAX™-I were added to the intermediate plate and transferred to 384-well cell culture plate, which was incubated at 37° C., 5% CO2 for 2 hours. After removal of medium from the plate, cells were lysed in lysis buffer from Alpha SureFire® Ultra™ Multiplex p-Erk and total Erk assay kit (PerkinElmer MPSU-PTERK) containing Halt™ Protease and Phosphotase inhibitor cocktail (ThermoFisher Scientific 78446) at room temperature with constant shaking at 300 rpm for 30 minutes. The cell lysates were then transferred to OptiPlate-384 plate (PerkinElmer 6005620) and the phosphorylation of Erk and total Erk levels were detected by Alpha SureFire Ultra Multiplex p-Erk kit (PerkinElmer MPSU-PTERK) following the manufacturer's protocol. Assay plates were read on an EnVision Multimode Plate Reader (PerkinElmer) and the ratio of p-Erk vs total Erk in each well was used as the final readout. Dose response curves were analyzed using a 4-parameter logistic model to calculate IC50 values using spotfire software.

[3] = Homo sapiens, NCI-H358, 2 h, NCI-H358 cells, 2 hour incubation, ratio of p-Erk vs total Erk, read-out: IC50

T1 sequence (P01116 with tags, fused parts or gaps isoform P01116-2 G12C/C51S/C80L/C118S): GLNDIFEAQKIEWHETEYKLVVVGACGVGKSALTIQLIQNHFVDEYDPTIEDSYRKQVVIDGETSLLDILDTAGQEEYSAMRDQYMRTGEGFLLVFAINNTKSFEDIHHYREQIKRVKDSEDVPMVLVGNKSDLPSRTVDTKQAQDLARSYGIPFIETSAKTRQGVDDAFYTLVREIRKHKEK

SMILES | IC50 [1] [nM] | IC50 ([2]; NCI-H358 cells, 2 hour incubation, ratio of p-Erk vs total Erk, read-out: IC50) [nM] | IC50 [2, 3] [nM] | IC50 ([2]; Homo sapiens, NCI-H358, 2 h) [nM]
C=CC(=O)N1CCN(c2cc(C(=O)NC(C)CN3CCC(C)(O)C3)nc3c2CCN(c2cccc4cccc(C)c24)C3)C[C@@H]1CC#N (single isomer, unassigned) [Compound 76, 4-((S)-4-acryloyl-3-(cyanomethyl)piperazin-1-yl)-N-((S or R)-1-((S or R)-3-hydroxy-3-methylpyrrolidin-1-yl)propan-2-yl)-7-(8-methylnaphthalen-1-yl)-5,6,7,8-tetrahydro-1,7-naphthyridine-2-carboxamide] | 6.2 | 207 |  | 
C=C(F)C(=O)N1CCN(c2cc(C(=O)NC(C)CN3CCC(C)(O)C3)nc3c2CCN(c2cccc4cccc(C)c24)C3)C[C@@H]1CC#N (single isomer, unassigned) [Compound 77, 4-((S)-3-(cyanomethyl)-4-(2-fluoroacryloyl)piperazin-1-yl)-N—((R or S)-1-((S or R)-3-hydroxy-3-methylpyrrolidin-1-yl)propan-2-yl)-7-(8-methylnaphthalen-1-yl)-5,6,7,8-tetrahydro-1,7-naphthyridine-2-carboxamide] | 5 |  | 611 | 
C=CC(=O)N1CCN(c2cc(C(=O)N[C@H](C)CN(C)C)nc3c2CCN(c2cccc4cccc(C)c24)C3)CC1 [Compound 12, (R)-4-(4-acryloylpiperazin-1-yl)-N-(1-(dimethylamino)propan-2-yl)-7-(8-methylnaphthalen-1-yl)-5,6,7,8-tetrahydro-1,7-naphthyridine-2-carboxamide] | 66 |  | 5940 | 
C=CC(=O)N1CCN(c2cc(C(=O)NC3(CN4CCCCC4)CC3)nc3c2CCN(c2cccc4cccc(C)c24)C3)CC1 [Compound 25, 4-(4-acryloylpiperazin-1-yl)-7-(8-methylnaphthalen-1-yl)-N-(1-(piperidin-1-ylmethyl)cyclopropyl)-5,6,7,8-tetrahydro-1,7-naphthyridine-2-carboxamide] | 74 |  | 5640 | 
C=CC(=O)N1CCN(c2cc(C(=O)NCCN(C)C)nc3c2CCN(c2cccc4ccccc24)C3)C[C@@H]1CC#N [Compound 60, (S)-4-(4-acryloyl-3-(cyanomethyl)piperazin-1-yl)-N-(2-(dimethylamino)ethyl)-7-(naphthalen-1-yl)-5,6,7,8-tetrahydro-1,7-naphthyridine-2-carboxamide] | 8.8 |  | 375 | 
C=CC(=O)N1CCN(c2cc(C(=O)N[C@H](C)CN)nc3c2CCN(c2cccc4ccccc24)C3)C[C@@H]1CC#N [Compound 61, 4-((S)-4-acryloyl-3-(cyanomethyl)piperazin-1-yl)-N—((R)-1-aminopropan-2-yl)-7-(naphthalen-1-yl)-5,6,7,8-tetrahydro-1,7-naphthyridine-2-carboxamide] | 13 |  | 1240 | 
C=CC(=O)N1CCN(c2cc(C(=O)N[C@@H](C)CN)nc3c2CCN(c2cccc4ccccc24)C3)C[C@@H]1CC#N [Compound 62, 4-((S)-4-acryloyl-3-(cyanomethyl)piperazin-1-yl)-N-((S)-1-aminopropan-2-yl)-7-(naphthalen-1-yl)-5,6,7,8-tetrahydro-1,7-naphthyridine-2-carboxamide] | 51 |  | 2410 | 
C=CC(=O)N1CCN(c2cc(C(=O)N3CCC[C@@H]3CN3CCCC3)nc3c2CCN(c2cccc4cccc(C)c24)C3)C[C@@H]1CC#N [Compound 63, 2-((S)-1-acryloyl-4-(7-(8-methylnaphthalen-1-yl)-2-((R)-2-(pyrrolidin-1-ylmethyl)pyrrolidine-1-carbonyl)-5,6,7,8-tetrahydro-1,7-naphthyridin-4-yl)piperazin-2-yl)acetonitrile] | 8 |  |  | 427
C=CC(=O)N1CCN(c2cc(C(=O)NCCN(C)C)nc3c2CCN(c2cccc4cccc(C)c24)C3)C[C@@H]1CC#N [Compound 64, (S)-4-(4-acryloyl-3-(cyanomethyl)piperazin-1-yl)-N-(2-(dimethylamino)ethyl)-7-(8-methylnaphthalen-1-yl)-5,6,7,8-tetrahydro-1,7-naphthyridine-2-carboxamide] | 2.7 |  | 106 | 
C=CC(=O)N1CCN(c2cc(C(=O)N[C@H](C)CN(C)C)nc3c2CCN(c2cccc4cccc(C)c24)C3)C[C@@H]1CC#N [Compound 65, 4-((S)-4-acryloyl-3-(cyanomethyl)piperazin-1-yl)-N-((R)-1-(dimethylamino)propan-2-yl)-7-(8-methylnaphthalen-1-yl)-5,6,7,8-tetrahydro-1,7-naphthyridine-2-carboxamide] | 2.1 |  | 16 | 
C=CC(=O)N1CCN(c2cc(C(=O)N[C@H](C)CN)nc3c2CCN(c2cccc4cccc(C)c24)C3)C[C@@H]1CC#N [Compound 67, 4-((S)-4-acryloyl-3-(cyanomethyl)piperazin-1-yl)-N—((R)-1-aminopropan-2-yl)-7-(8-methylnaphthalen-1-yl)-5,6,7,8-tetrahydro-1,7-naphthyridine-2-carboxamide] | 5.9 |  | 433 | 
C=CC(=O)N1CCN(c2cc(C(=O)N[C@H](C)CN3CC(F)(F)C3)nc3c2CCN(c2cccc4cccc(C)c24)C3)C[C@@H]1CC#N [Compound 68, 4-((S)-4-acryloyl-3-(cyanomethyl)piperazin-1-yl)-N—((R)-1-(3,3-difluoroazetidin-1-yl)propan-2-yl)-7-(8-methylnaphthalen-1-yl)-5,6,7,8-tetrahydro-1,7-naphthyridine-2-carboxamide] | 29 |  | 2890 | 
C=CC(=O)N1CCN(c2cc(C(=O)N[C@H](C)CN3CC(O)(C(F)(F)F)C3)nc3c2CCN(c2cccc4cccc(C)c24)C3)C[C@@H]1CC#N [Compound 69, 4-((S)-4-acryloyl-3-(cyanomethyl)piperazin-1-yl)-N-((R)-1-(3-hydroxy-3-(trifluoromethyl)azetidin-1-yl)propan-2-yl)-7-(8-methylnaphthalen-1-yl)-5,6,7,8-tetrahydro-1,7-naphthyridine-2-carboxamide] | 22 |  | 2000 | 
C=CC(=O)N1CCN(c2cc(C(=O)N[C@H](C)CN3CC(C)(O)C3)nc3c2CCN(c2cccc4cccc(C)c24)C3)C[C@@H]1CC#N [Compound 70, 4-((S)-4-acryloyl-3-(cyanomethyl)piperazin-1-yl)-N-((R)-1-(3-hydroxy-3-methylazetidin-1-yl)propan-2-yl)-7-(8-methylnaphthalen-1-yl)-5,6,7,8-tetrahydro-1,7-naphthyridine-2-carboxamide] | 2.2 |  | 57 | 
C=C(F)C(=O)N1CCN(c2cc(C(=O)N[C@H](C)CN(C)C)nc3c2CCN(c2cccc4cccc(C)c24)C3)C[C@@H]1CC#N [Compound 78, 4-((S)-3-(cyanomethyl)-4-(2-fluoroacryloyl)piperazin-1-yl)-N-((R)-1-(dimethylamino)propan-2-yl)-7-(8-methylnaphthalen-1-yl)-5,6,7,8-tetrahydro-1,7-naphthyridine-2-carboxamide] | 8.3 |  | 1250 | 
C=C(F)C(=O)N1CCN(c2cc(C(=O)N[C@H](C)CN(C)C(C)C)nc3c2CCN(c2cccc4cccc(C)c24)C3)C[C@@H]1CC#N [Compound 79, 4-((S)-3-(cyanomethyl)-4-(2-fluoroacryloyl)piperazin-1-yl)-N-((R)-1-(isopropyl(methyl)amino)propan-2-yl)-7-(8-methylnaphthalen-1-yl)-5,6,7,8-tetrahydro-1,7-naphthyridine-2-carboxamide] | 12 |  | 1280 | 
C=CC(=O)N1CCN(c2cc(C(=O)NC[C@@H]3CC(F)(F)CN3)nc3c2CCN(c2cccc4cccc(C)c24)C3)C[C@@H]1CC#N [Compound 80, 4-((S)-4-acryloyl-3-(cyanomethyl)piperazin-1-yl)-N-(((S)-4,4-difluoropyrrolidin-2-yl)methyl)-7-(8-methylnaphthalen-1-yl)-5,6,7,8-tetrahydro-1,7-naphthyridine-2-carboxamide] | 91 |  | 6360 | 
C=CC(=O)N1CCN(c2cc(C(=O)NC[C@H]3CC(F)(F)CN3)nc3c2CCN(c2cccc4cccc(C)c24)C3)C[C@@H]1CC#N [Compound 81, 4-((S)-4-acryloyl-3-(cyanomethyl)piperazin-1-yl)-N-(((R)-4,4-difluoropyrrolidin-2-yl)methyl)-7-(8-methylnaphthalen-1-yl)-5,6,7,8-tetrahydro-1,7-naphthyridine-2-carboxamide] | 29 |  | 2970 | 
C=CC(=O)N1CCN(c2cc(C(=O)N[C@H](C)CN(C)C)nc3c2CCN(c2c(Cl)c(C)cc4[nH]ncc24)C3)CC1 [Compound 83, (R)-4-(4-acryloylpiperazin-1-yl)-7-(5-chloro-6-methyl-1H-indazol-4-yl)-N-(1-(dimethylamino)propan-2-yl)-5,6,7,8-tetrahydro-1,7-naphthyridine-2-carboxamide] | 90 |  | 1600 | 
